{"source": "paper PMC9388863", "about": "“Congeners-Specific Intestinal Absorption Of Microcystins In An In Vitro 3D Human Intestinal Epithelium: The Role Of Influx/Efflux Transporters” (Frontiers in Toxicology, 2022)", "key": {"EpiIntestinal™ tissues [1]": {"system": "EpiIntestinal™ tissues", "assay_type": "in vitro ADME, human"}, "EpiIntestinal™ tissues [2]": {"system": "EpiIntestinal™ tissues", "assay_type": "cell-based, human"}, "MRP2 [3]": {"target": "T1, MRP2 (Homo sapiens, UniProt Q92887)", "T1 construct": "EpiIntestinal™ tissues express all the influx and efflux transporters that are considered relevant; host or cells: EpiIntestinal™ 3D reconstructed human small-intestinal epithelium (normal human primary cells, single donor)", "T1 sequence (Q92887 whole entry)": "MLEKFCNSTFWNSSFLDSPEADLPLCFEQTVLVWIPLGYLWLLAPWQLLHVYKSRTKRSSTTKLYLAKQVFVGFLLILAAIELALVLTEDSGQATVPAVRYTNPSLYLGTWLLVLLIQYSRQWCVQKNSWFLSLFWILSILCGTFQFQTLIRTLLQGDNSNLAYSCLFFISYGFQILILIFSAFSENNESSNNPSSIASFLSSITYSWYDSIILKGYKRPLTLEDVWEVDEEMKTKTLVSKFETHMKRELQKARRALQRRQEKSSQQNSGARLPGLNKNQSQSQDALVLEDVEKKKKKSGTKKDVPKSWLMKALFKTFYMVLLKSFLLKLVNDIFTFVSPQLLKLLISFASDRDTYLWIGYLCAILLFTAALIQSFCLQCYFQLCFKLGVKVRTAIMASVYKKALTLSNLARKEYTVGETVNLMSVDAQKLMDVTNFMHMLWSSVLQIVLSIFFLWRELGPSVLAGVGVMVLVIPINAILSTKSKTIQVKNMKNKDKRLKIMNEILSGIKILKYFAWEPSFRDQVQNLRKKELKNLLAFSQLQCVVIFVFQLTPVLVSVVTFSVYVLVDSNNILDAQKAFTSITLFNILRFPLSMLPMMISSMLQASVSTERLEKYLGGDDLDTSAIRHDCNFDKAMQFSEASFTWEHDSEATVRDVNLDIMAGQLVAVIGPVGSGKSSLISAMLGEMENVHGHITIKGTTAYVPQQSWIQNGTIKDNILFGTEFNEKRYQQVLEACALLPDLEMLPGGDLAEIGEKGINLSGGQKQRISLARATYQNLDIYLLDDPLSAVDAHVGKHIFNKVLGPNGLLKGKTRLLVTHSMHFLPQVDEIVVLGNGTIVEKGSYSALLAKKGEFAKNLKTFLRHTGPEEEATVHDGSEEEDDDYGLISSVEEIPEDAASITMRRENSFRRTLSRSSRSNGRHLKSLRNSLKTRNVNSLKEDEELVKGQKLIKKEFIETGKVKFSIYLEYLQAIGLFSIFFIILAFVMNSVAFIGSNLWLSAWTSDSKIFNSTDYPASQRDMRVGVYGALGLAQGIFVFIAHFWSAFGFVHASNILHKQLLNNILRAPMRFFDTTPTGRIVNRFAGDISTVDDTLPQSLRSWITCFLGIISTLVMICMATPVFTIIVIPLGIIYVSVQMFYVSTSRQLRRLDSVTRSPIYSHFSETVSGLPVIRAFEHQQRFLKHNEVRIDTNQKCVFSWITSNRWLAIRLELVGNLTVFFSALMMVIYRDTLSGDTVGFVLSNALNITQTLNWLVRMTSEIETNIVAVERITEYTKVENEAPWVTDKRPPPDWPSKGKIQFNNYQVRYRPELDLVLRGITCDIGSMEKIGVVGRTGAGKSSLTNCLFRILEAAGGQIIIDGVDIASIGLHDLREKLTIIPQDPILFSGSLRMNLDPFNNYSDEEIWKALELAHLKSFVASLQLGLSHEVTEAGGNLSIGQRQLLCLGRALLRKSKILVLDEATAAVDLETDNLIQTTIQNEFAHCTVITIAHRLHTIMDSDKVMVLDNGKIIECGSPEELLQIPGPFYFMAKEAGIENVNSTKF", "assay_type": "in vitro ADME"}, "[4]": {"system": "EpiIntestinal™ 3D human reconstructed intestinal epithelium", "assay_type": "in vitro ADME"}, "P-gp": {"target": "T2, P-gp (Homo sapiens, UniProt P08183)", "T2 construct": "EpiIntestinal™ tissues express all the influx and efflux transporters that are considered relevant; host or cells: EpiIntestinal™ 3D reconstructed human small-intestinal epithelium (normal human primary cells, single donor)", "T2 sequence (P08183 whole entry)": "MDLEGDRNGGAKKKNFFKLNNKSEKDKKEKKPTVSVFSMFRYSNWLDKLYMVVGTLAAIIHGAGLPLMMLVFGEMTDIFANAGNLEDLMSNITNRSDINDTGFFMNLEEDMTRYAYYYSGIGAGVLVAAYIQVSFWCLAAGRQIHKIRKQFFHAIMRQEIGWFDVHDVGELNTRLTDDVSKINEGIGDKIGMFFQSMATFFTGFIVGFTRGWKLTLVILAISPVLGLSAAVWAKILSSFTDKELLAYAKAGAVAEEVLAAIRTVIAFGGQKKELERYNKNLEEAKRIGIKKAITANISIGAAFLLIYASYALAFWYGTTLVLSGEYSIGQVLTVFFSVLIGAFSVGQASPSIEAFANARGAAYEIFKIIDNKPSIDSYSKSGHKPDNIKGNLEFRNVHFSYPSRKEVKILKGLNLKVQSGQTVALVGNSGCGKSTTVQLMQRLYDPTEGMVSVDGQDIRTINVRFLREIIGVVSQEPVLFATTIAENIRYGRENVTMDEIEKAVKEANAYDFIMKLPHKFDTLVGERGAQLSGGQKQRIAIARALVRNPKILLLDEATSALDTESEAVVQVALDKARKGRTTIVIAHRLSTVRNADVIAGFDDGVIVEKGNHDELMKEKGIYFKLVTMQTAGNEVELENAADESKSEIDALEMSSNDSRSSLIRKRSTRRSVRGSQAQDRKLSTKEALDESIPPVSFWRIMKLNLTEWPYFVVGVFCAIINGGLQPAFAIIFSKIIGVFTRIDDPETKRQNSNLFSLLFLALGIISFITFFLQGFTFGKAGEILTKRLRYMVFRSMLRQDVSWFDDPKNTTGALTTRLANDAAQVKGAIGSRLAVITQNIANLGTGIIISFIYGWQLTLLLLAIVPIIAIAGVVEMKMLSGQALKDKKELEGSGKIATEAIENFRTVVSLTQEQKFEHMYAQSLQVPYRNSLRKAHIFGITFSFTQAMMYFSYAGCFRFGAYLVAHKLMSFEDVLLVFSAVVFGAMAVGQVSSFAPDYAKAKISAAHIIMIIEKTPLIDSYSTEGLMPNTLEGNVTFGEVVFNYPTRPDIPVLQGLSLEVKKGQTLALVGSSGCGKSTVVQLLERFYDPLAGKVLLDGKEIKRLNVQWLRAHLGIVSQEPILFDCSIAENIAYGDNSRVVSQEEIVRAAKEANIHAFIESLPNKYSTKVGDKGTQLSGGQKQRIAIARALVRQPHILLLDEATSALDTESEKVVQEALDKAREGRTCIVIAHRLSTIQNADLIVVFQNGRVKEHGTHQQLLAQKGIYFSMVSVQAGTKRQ", "experiment": "Transport with/without P-gp inhibitor verapamil in EpiIntestinal™", "assay_type": "in vitro ADME"}, "Caco-2 cell monolayers": {"system": "Caco-2 cell monolayers", "settings": "cited from earlier work"}, "BCRP": {"system": "BCRP", "experiment": "in vitro", "settings": "human, not told"}, "MRP2 [5]": {"target": "T1, MRP2", "settings": "cited from earlier work"}, "OATP 2B1": {"target": "OATP 2B1 (Homo sapiens, UniProt O94956)", "sequence (O94956 whole entry)": "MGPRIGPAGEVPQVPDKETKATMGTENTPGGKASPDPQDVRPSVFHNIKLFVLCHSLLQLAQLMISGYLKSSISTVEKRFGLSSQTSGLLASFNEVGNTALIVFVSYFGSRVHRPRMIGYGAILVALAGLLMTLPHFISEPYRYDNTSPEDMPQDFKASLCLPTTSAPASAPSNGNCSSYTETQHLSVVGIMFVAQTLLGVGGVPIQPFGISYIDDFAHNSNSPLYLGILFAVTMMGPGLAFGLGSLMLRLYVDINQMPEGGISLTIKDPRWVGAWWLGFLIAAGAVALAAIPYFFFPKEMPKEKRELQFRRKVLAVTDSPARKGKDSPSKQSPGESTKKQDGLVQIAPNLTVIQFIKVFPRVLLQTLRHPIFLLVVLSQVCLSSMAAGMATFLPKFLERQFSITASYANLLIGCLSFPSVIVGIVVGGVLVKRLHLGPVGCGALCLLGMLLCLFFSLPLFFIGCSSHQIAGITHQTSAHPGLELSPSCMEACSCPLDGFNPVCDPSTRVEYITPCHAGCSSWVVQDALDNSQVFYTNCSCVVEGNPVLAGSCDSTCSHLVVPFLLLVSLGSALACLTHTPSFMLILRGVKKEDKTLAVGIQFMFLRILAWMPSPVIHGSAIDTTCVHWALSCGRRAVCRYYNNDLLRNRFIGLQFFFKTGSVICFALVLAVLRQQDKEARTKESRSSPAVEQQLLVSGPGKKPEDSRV", "assay_type": "in vitro ADME"}}, "note": "*1 amine or outer side, *2 acyl side, *3 side chain or, on linkers, in order; H or OH if unused. Where a SMILES comes first, the peptide text is derived from it. Bridges are numbered along the chain shown (N, C = ends). [ ]: non-standard residue; d: D form. Adda = CO[C@@H](Cc1ccccc1)[C@@H](C)/C=C(C)/C=C/[C@H](N[*:1])[C@H](C)C(=O)[*:2]; dAsp(3S-Me) = C[C@H](C(=O)[*:3])[C@@H](N[*:1])C(=O)[*:2]; d(γGlu) = O=C(O)[C@@H](CCC(=O)[*:2])N[*:1]; NMeDha = C=C(NC)C(=O)O"}
{"molecule": "C=C1C(=O)N[C@H](C)C(=O)N[C@@H](CC(C)C)C(=O)N[C@@H](C(=O)O)[C@H](C)C(=O)N[C@@H](CCCNC(=N)N)C(=O)N[C@@H](/C=C/C(C)=C/[C@H](C)[C@H](Cc2ccccc2)OC)[C@H](C)C(=O)N[C@@H](C(=O)O)CCC(=O)N1C", "note": "[MC-LR, Microcystin-LR] (R[Adda][d(γGlu)][NMeDha][dA]L[dAsp(3S-Me)]-OH; lactam N-7)", "values": [{"measurement": "Efflux ratio (ER), Papp BL-AP / Papp AP-BL", "setting": "EpiIntestinal™ tissues [1]", "result": 3.65}, {"measurement": "toxicity, measured as barrier integrity with LY", "setting": "EpiIntestinal™ tissues [2]", "result": "no toxicity"}, {"measurement": "effect of cyclosporin on MC transport", "setting": "MRP2 [3]", "result": "significantly decreased the efflux"}, {"measurement": "absorption (parent compound detected in the BL compartment), % of the administered dose", "setting": "[4]", "result": "around 5%"}, {"measurement": "amount recovered in the BL compartment at 4 h, percentage of the applied dose", "setting": "[4]", "result": 4.6, "unit": "%"}, {"measurement": "dependence of Papp on the donor concentration", "setting": "[4]", "result": "independent on the donor concentrations"}, {"measurement": "effect of co-administration of verapamil (P-gp inhibitor) on MC transport", "setting": "P-gp", "result": "not affected"}, {"measurement": "toxin reaching the basolateral compartment", "setting": "Caco-2 cell monolayers", "result": "0.3–1.35%"}]}
{"molecule": "C[C@]12CC[C@H]3[C@@H](CCC4=CC(=O)CC[C@@]43C)[C@@H]1CC[C@@H]2O", "note": "[testosterone, Testosterone]", "values": [{"measurement": "efflux ratio", "setting": "BCRP", "result": 1.95}]}
{"molecule": "Microcystin-LF [MC-LF]", "values": [{"measurement": "toxicity, measured as barrier integrity with LY", "setting": "EpiIntestinal™ tissues [2]", "result": "no toxicity"}, {"measurement": "amount recovered in the cellular pellet, % of the administered dose", "setting": "[4]", "result": "less than 1%"}, {"measurement": "dependence of Papp on the donor concentration", "setting": "[4]", "result": "dose dependent increase in permeability"}, {"measurement": "transport (efflux) by MRP2", "setting": "MRP2 [5]", "result": "transported more rapidly than MC-LR and–RR"}]}
{"molecule": "Microcystin-LW [MC-LW]", "values": [{"measurement": "Efflux ratio (ER), Papp BL-AP / Papp AP-BL", "setting": "EpiIntestinal™ tissues [1]", "result": 2.65}, {"measurement": "effect of pravastatin (OATP 2B1 inhibitor) on MC uptake", "setting": "OATP 2B1", "result": "slightly decreased"}, {"measurement": "toxicity, measured as barrier integrity with LY", "setting": "EpiIntestinal™ tissues [2]", "result": "no toxicity"}, {"measurement": "effect of cyclosporin on MC transport", "setting": "MRP2 [3]", "result": "not reaching the statistical significance"}, {"measurement": "amount recovered in the cellular pellet, % of the administered dose", "setting": "[4]", "result": "less than 1%"}, {"measurement": "dependence of Papp on the donor concentration", "setting": "[4]", "result": "dose dependent increase in permeability"}, {"measurement": "effect of co-administration of verapamil (P-gp inhibitor) on MC transport", "setting": "P-gp", "result": "not affected"}]}
{"molecule": "Microcystin-RR [MC-RR]", "values": [{"measurement": "toxicity, measured as barrier integrity with LY", "setting": "EpiIntestinal™ tissues [2]", "result": "no toxicity"}, {"measurement": "absorption (parent compound detected in the BL compartment), % of the administered dose", "setting": "[4]", "result": "around 5%"}, {"measurement": "amount recovered in the BL compartment at 4 h, percentage of the applied dose", "setting": "[4]", "result": 3.6, "unit": "%"}, {"measurement": "dependence of Papp on the donor concentration", "setting": "[4]", "result": "independent on the donor concentrations"}, {"measurement": "permeability coefficient Papp (AP-BL), time course", "setting": "[4]", "result": 5.73}, {"measurement": "time at which toxin was detectable in the receptor fluid", "setting": "[4]", "result": 30, "unit": "min"}]}
{"molecule": "Microcystin-YR [MC-YR]", "values": [{"measurement": "toxicity, measured as barrier integrity with LY", "setting": "EpiIntestinal™ tissues [2]", "result": "no toxicity"}, {"measurement": "absorption (parent compound detected in the BL compartment), % of the administered dose", "setting": "[4]", "result": "around 5%"}, {"measurement": "amount recovered in the BL compartment at 4 h, percentage of the applied dose", "setting": "[4]", "result": 4.3, "unit": "%"}, {"measurement": "dependence of Papp on the donor concentration", "setting": "[4]", "result": "independent on the donor concentrations"}]}
